Results published in PMC4009755, “High-Throughput Screen of Natural Product Libraries for Hsp90 Inhibitors” (Biology, 2014).
Read-outs that look alike come from different tables or passages of the source.

What was measured:
[1] = target: Hsp90 chaperone machinery present in rabbit reticulocyte lysate; test: Hsp90-dependent refolding of thermally denatured luciferase in rabbit reticulocyte lysate (high-throughput screen and titration); format: biochemical; conditions: for Inhibition of Hsp90-dependent refolding of luciferase in the initial screen: 12.5 µg/mL (Analyticon compounds 40 µM), Microsource screen used a cut-off of 70% inhibition
Method: Rabbit reticulocyte lysate, prepared by lysing one volume of packed reticulocytes in two volumes of deionized water, followed by centrifugation for twenty minutes at 15,000 × g, was purchased from Green Hectares (Oregon, WI, USA).
Recombinant luciferase from Promega was diluted to 0.5 mg/mL in buffer consisting of 25 mM Tricine–HCl (pH 7.8), 8 mM MgSO4, 0.1 mM EDTA, and 10 mg/mL acetylated BSA. Next, the solution was adjusted to include 10% glycerol and 1% Triton X-100. Finally, the luciferase solution was heated to ~41°. Once the activity of the luciferase reached ~1% of its initial value, the mixture was placed on ice, or flash frozen in liquid nitrogen and placed at −80° for storage.
To prepare the denatured luciferase for use in re-folding assays, 125 µL of the 0.5 mg/mL mixture was added into a 10 mL mixture containing 80 mM Tris HCl, pH 7.7, 8 mM Mg(OAc)2, 300 mM KCl, 12 mM ATP, and 20 mM creatine phosphate, and 0.8 mg/mL creatine phosphokinase.
The assay buffer, which contains the luciferase substrate luciferin, consisted of 75 mM Tricine-HCl, pH 7.8, 24 mM MgSO4, 300 µM EDTA, 2 mM DTT, 313 µM D-luciferin, 640 µM coenzyme A, 660 µM ATP, 150 mM KCl, 10% (v/v) Triton X-100, 20% (v/v) glycerol, and 3.5% DMSO.
The libraries were screened for compounds that inhibited the refolding of thermally denatured luciferase using a high-throughput assay carried out with a slight modification of the method previously described. Briefly, compounds were reconstituted in 100% DMSO. Stocks of compounds purchased from Microsource, TimTec, Biofocus and BioMol were reconstituted to a concentration of 1 mg/mL. The stocks were diluted 40-fold into nano-pure water with the compounds being used at a final concentration of 12.5 µg/mL for the assay. Analyticon compounds (0.2 µmol) were reconstituted to a concentration of 4 mM, and were used at a final concentration of 40 µM in the assay. Assays were performed in 96-well microplates. To each well was added 30 µL of the water/DMSO compound solution, 15 µL of the reticulocyte lysate preparation, and 15 µL of the luciferase reagent. The plates were agitated and then allowed to incubate at 25 °C for one to three hours. After the incubation, 60 µL of assay buffer containing luciferin was added to each well. The plates were then read in a Molecular Devices LMaxII^384 microplate reader, and luminescence was measured in relative light units, with an integration time of 10 s. Compounds that inhibited luciferase refolding by approximately fifty percent or greater were then titrated into a refolding reaction containing native luciferase, to eliminate false positive hits that were direct inhibitors of luciferase as previously described. Compounds were classified as a potential Hsp90 inhibitor if they inhibited luciferase refolding by 60% or greater and there was no inhibition of the activity of native luciferase at the compound’s IC50 (concentration of the compound that inhibits luciferase refolding by 50%).
The titrations were repeated twice. For a more accurate determination of the IC50s for the compounds studied in Section 3.2.1 of this manuscript, a two-fold […] series of the compounds were used in triplicate, with the experiment being repeated three times.

[2] = tested on: heme-regulated eIF2α kinase (HRI); test: Hsp90-dependent maturation of the heme-regulated eIF2α kinase (HRI) in reticulocyte lysate; format: biochemical, rabbit; conditions: heme-deficient lysate, mobility shift on PAGE
Method: [^35S]-Labeled His-tagged HRI was translated by coupled transcription/translation for 20 min in TnT reticulocyte lysate at 30 °C. Drugs or DMSO vehicle control were then added. After an additional 10 min, the reactions (4 µL aliquots) were diluted into 28 µL volumes of heme-supplemented control lysate or heme-deficient lysate, containing the same respective drugs and DMSO vehicle control. The samples were allowed to incubate for another 40 min at 37 °C. The [^35S]-Labeled His-tagged HRI was then adsorbed from the reactions with NTA-Ni^2+ agarose resin for 1 h at 4 °C. The agarose resins were the washed four times total, in P50T, P100T 2X, and P50T again. SDS sample buffer was then added to the pellets, the samples boiled, and then separated on an 8% PAGE gel, and transferred to PVDF membrane. Membranes were dried and exposed to X-ray film for autoradiography.

MCF7 breast cancer cells = test: Antiproliferation assay (MTS), MCF7 cells; format: cell-based; conditions: Homo sapiens
Method: MCF7 cells were grown in Gibco Dulbecco’s Modified Essential Medium, supplemented with non-essential amino acids, 2 mM glutamine, and 10% fetal bovine serum. Cells were seeded at 2,000 cells per well in clear 96-well plates containing 100 µL of media per well, and the cells were allowed to attach overnight. The next day, serial dilutions of compounds in DMSO or DMSO control was added to the wells. Cells were then incubated at 37 °C for 48 h. Cell viability was determined using the Promega Cell Titer 96 Aqueous One Solution Cell Proliferation Assay, which makes use of a soluble tetrazolium compound that is converted into a chromophore by living cells. After incubation with compounds, 20 µL of the assay substrate solution were added to the wells, and the plate was incubated at 37 °C for an additional hour. The plate was then read at absorbance at 490 nm using a Molecular Devices Versamax plate reader. Values are expressed as percent DMSO control. All experiments were done in triplicate.

[3] = tested on: Hsp90-dependent client proteins Cdk6, pAkt, Her2; Hsp90 and Hsp70 in MCF7 cells; test: Inhibitor-dependent depletion of Hsp90-dependent clients from MCF7 cells (Western blot); format: cell-based, human; conditions: 24 h
Method: MCF7 cells were grown to confluence in Advanced DMEM/F12 (1:1; Gibco) supplemented with L-glutamine (2 mM), streptomycin (500 µg/mL), and penicillin (100 units/mL) and re-seeded at 0.4 × 10^6 cells/well/2 mL. Cells were incubated in a humidified atmosphere (37 °C, 5% CO2) for 24 h and treated with varying concentrations of compound or 0.5 µM geldanamycin in DMSO (0.25% DMSO final concentration), or vehicle (DMSO) for 24 h. Cells were harvested in cold PBS and lysed using MPER (Thermo Scientific/Pierce, USA) supplemented with protease and phosphatase inhibitors (Roche Applied Science, USA) according to manufacturer’s directions. Lysates were clarified at 14,000 g for 15 min at 4 °C. Protein concentrations were determined using the Pierce BCA protein assay kit per the manufacturer’s instructions. Equal amounts of protein (15 μg) were electrophoresed under reducing conditions (10% acrylamide gels), transferred to PVDF, and immunoblotted with the corresponding antibody (Anti-pAkt, -Her2, and -Cdk6 antibodies were from Cell Signaling; anti-actin was from Santa Cruz Biotechnology; and anti-Hsp90 and -Hsp70 were from Enzo Lifesciences). Membranes were incubated with an appropriate horseradish peroxidase-labeled secondary antibody, developed with a chemiluminescent substrate, and visualized.

Plasmodium falciparum = tested on: Plasmodium falciparum; parameters: method as in PMID 17913482; conditions: cited from earlier work
[4] = MCF7 cells, 48 h, MTS assay, read-out: IC50 MCF7 proliferation

C=C1C(=O)O[C@@H]2C[C@@H](C)[C@@H]3C=CC(=O)[C@@]3(C)[C@@H](O)[C@H]12 [Compound 9, Helenalin]
IC50 [1]: ~80 µM

O=c1cc(-c2ccc(O)c(O)c2)oc2cc(O)cc(O)c12 [Compound 31, Luteolin]
Inhibition of Hsp90-dependent refolding of luciferase in the initial screen [1]: no inhibitory activity in one of the screens

CC(C)=CCC[C@]1(C)C=Cc2c(O)c3c(c(CC=C(C)C)c2O1)O[C@]12C(=C[C@@H]4C[C@H]1C(C)(C)O[C@@]2(C/C=C(/C)C(=O)O)C4=O)C3=O [Compound 35, Gambogic acid]
Inhibition of Hsp90-dependent refolding of luciferase in the initial screen [1]: consistently identified as hits

COc1cc(/C=C/C(=O)CC(=O)/C=C/c2ccc(O)c(OC)c2)ccc1O [Compound 40, Curcumin]
Inhibition of Hsp90-dependent refolding of luciferase in the initial screen [1]: consistently identified as hits

CC(=O)c1c(O)c(C)c(O)c(Cc2c(O)c3c(c(C(=O)/C=C/c4ccccc4)c2O)OC(C)(C)C=C3)c1O [Compound 47, Rottlerin]
Inhibition of Hsp90-dependent maturation of HRI ([2]; 100 µM): inhibited the maturation of HRI | IC50 (MCF7 breast cancer cells; [4]): 7 ± 3 µM | IC50 [1]: ~60 µM | IC50 ([1]; read-out: IC50 luciferase refolding): 63 ± 5 µM | Depletion of Hsp90 clients (Cdk6, pAkt, Her2) ([3]; varying concentrations): concentration-dependent depletion | Expression of Hsp70 ([3]; varying concentrations): concentration-dependent increase | Expression of Hsp90 ([3]; varying concentrations): None of the compounds increased the expression of Hsp90

COC(=O)[C@]1(C)CC[C@]2(C)CC[C@]3(C)C4=CC=C5C(=CC(=O)C(O)=C5C)[C@]4(C)CC[C@@]3(C)[C@@H]2C1 [Compound 49, Celastrol methyl ester]
IC50 [1]: ~2 µM

CC(=O)O[C@@H]1C[C@@]2(C)[C@H](c3ccoc3)C[C@H]3O[C@]32[C@]2(C)C(=O)C(O)=C3C(C)(C)C(=O)C=C[C@]3(C)[C@@H]12 [Compound 50, Anthothecol]
Activity against the growth of Plasmodium falciparum in erythrocytes (Plasmodium falciparum): low micromolar activity | Inhibition of Hsp90-dependent maturation of HRI ([2]; 100 µM): inhibited the maturation of HRI | IC50 (MCF7 breast cancer cells; [4]): 0.5 ± 0.06 µM | Fold higher activity than gedunin ([1]; relative to the Hsp90 inhibitor gedunin, assay not specified): approximately 10 fold | Depletion of Hsp90 clients (Cdk6, pAkt, Her2) ([3]; varying concentrations): concentration-dependent depletion | Expression of Hsp70 ([3]; varying concentrations): concentration-dependent increase | Expression of Hsp90 ([3]; varying concentrations): None of the compounds increased the expression of Hsp90

CC1=CC(=O)c2c(O)cccc2C1=O [Compound 84, Plumbagin]
Inhibition of Hsp90-dependent refolding of luciferase in the initial screen [1]: consistently identified as hits

C=C1CCC(O)CC1=CC=C1CCCC2(C)C1CCC2C(C)CCCC(C)C (centres unmarked) [Compound 98]
IC50 [1]: ~60 µM

COc1c2c3c4c(c(OC)c(=O)c5c(O)cc(OC)c(c6c(OC)cc(O)c(c1=O)c63)c54)[C@@H](C(C)=O)[C@@](C)(O)C2 [Compound 116, Hypocrellin A]
IC50 [1]: 5 to 10 µM

C=C(C)[C@@H](CC=C(C)C)C[C@@]12C[C@@H](CC=C(C)C)C(C)(C)[C@@](CC=C(C)C)(C(=O)C(C(=O)c3ccc(O)c(O)c3)=C1O)C2=O [Garcinol]
Inhibition of Hsp90-dependent maturation of HRI ([2]; 100 µM): inhibited the maturation of HRI | IC50 (MCF7 breast cancer cells; [4]): 4 ± 0.6 µM | Depletion of Hsp90 clients (Cdk6, pAkt, Her2) ([3]; varying concentrations): concentration-dependent depletion | Expression of Hsp70 ([3]; varying concentrations): no effect | Expression of Hsp90 ([3]; varying concentrations): None of the compounds increased the expression of Hsp90

COc1cc(/C=C/C(=O)N2CCC=CC2=O)cc(OC)c1OC [Piplartine]
Inhibition of Hsp90-dependent maturation of HRI ([2]; 100 µM): inhibited the maturation of HRI | IC50 (MCF7 breast cancer cells; MCF7, 48 h, read-out: IC50 MCF7 proliferation (µM)): 10 ± 3 µM | Depletion of Hsp90 clients (Cdk6, pAkt, Her2) ([3]; varying concentrations): concentration-dependent depletion | Expression of Hsp70 ([3]; varying concentrations): no effect | Expression of Hsp90 ([3]; varying concentrations): None of the compounds increased the expression of Hsp90

COC1=C2C[C@@H](C)C[C@H](OC)[C@H](O)[C@@H](C)/C=C(\C)[C@H](OC(N)=O)[C@@H](OC)/C=C\C=C(/C)C(=O)NC(=CC1=O)C2=O [geldanamycin, reference compound]
Inhibition of Hsp90-dependent maturation of HRI ([2]; 20 µM): inhibited the maturation of HRI | Expression of Hsp70 ([3]; 0.5 µM): increase in the expression of Hsp70

[Na+].[Na+].[O]=[Mo](=[O])([O-])[O-] [molybdate, sodium molybdate, reference compound]
Inhibition of Hsp90-dependent maturation of HRI [2]: inhibited the maturation of HRI

CO[C@@H]1[C@@H](OC(N)=O)[C@@H](O)[C@H](Oc2ccc3c(O)c(NC(=O)c4ccc(O)c(CC=C(C)C)c4)c(=O)oc3c2C)OC1(C)C [novobiocin, reference compound]
Inhibition of Hsp90-dependent maturation of HRI [2]: inhibited the maturation of HRI

L-Adrenaline [Compound 99]
IC50 [1]: ~55 µM

Tyrothricin [Compound 74]
IC50 [1]: ~5 µM
